From patent US9566262B2, “Itch suppression by fucoxanthin” (THE RITSUMEIKAN TRUST, priority 2015, dated 2017)
“Also recorded” adds a separate entry of the source.

Columns and labels:
NC/Nga mice [1] = test: Scratching behavior (itch) in PiCl-sensitized NC/Nga dermatitis model mice, video monitoring; assay type: in vivo
From the text: On day 12, day 19, day 26 and day 33 after starting application of Vaseline or fucoxanthin, 0.8% picryl chloride (PiCl) was further applied to the back skin of the mice. The behaviors of the mice were observed by video monitoring. On day 34 after starting application of Vaseline or fucoxanthin, bromodeoxyuridine (BrdU, Nacalai Tesque) ([…]) was intraperitoneally administered to the mice. At 5 weeks after starting application of Vaseline or fucoxanthin, the time each mouse spent for scratching behavior in 10 minutes was measured by video monitoring. Then, the mice were sacrificed and the auricular lymph node, blood and skin were obtained. Serum IgE content was determined by enzyme-linked immunosorbent assay (ELISA) using Mouse IgE Assay Kit (Morinaga Institute of Biological Science, Inc.). […] BrdU uptake was determined by ELISA using Cell Proliferation ELISA, BrdU (Colorimetric) (Roche Diagnostics K.K.).
In the same manner as described in Example 2, Vaseline, fucoxanthin or tacrolimus and PiCl were applied to NC/Nga mice. At 5 weeks after starting application of fucoxanthin or tacrolimus, the time spent for scratching behavior per 10 minutes in the mice treated with fucoxanthin was measured and compared to that in the mice treated with tacrolimus. […]

NC/Nga mice [2] = test: Toluidine blue staining of skin specimens, number of TB-positive (mast) cells; assay type: in vivo; settings: 0.1% fucoxanthin in Vaseline, 5 weeks, vs Vaseline-applied mice
Experimental: In the same manner as described in Example 2, Vaseline or fucoxanthin and PiCl were applied to NC/Nga mice. At 5 weeks after starting application of Vaseline or fucoxanthin, the mice were sacrificed, the mice skins were fixed with 4% paraformaldehyde and embedded in paraffin. The skin specimen was stained with toluidine blue (TB) (pH=4.1). Imaging of the stained specimen was performed by Virtual Slide System (Olympus).

bone marrow cells = test: Formation of bone marrow-derived mast cells (BMMCs) from bone marrow cells; assay type: cell-based, mice; settings: 0.1 μM, 1 μM or 10 μM, vs DMSO
Experimental: Bone marrow cells were obtained from 8-week-old female mice and cultured in a medium for conditioning that contained WEHI-3 cells (National Institute of Biomedical Innovation, Health and Nutrition). The culture was performed according to the method described in Yamashita, U. et al. (2005) “Strain difference of murine bone marrow-derived mast cell functions.” J. Leukoc. Biol. 78(3): 605-611. The bone marrow cells were treated with 0.1 μM, 1 μM or 10 μM fucxanthin, or dimethyl sulfoxide (DMSO) as a control. The number of BMMCs containing 10 fields (100 μm×100 μm) per well was counted (FIG. 2C).

[3] = tested on: bone marrow-derived mast cells (BMMCs); test: Granule formation in BMMCs, tryptase immunostaining; assay type: cell-based, mice; settings: 10 μM, vs control-treated cells
Experimental: Mature mast cells were prepared in the same manner as described in Example 5. The BMMCs obtained were mounted on a glass slide and heat-fixed. The analysis of the preparation was performed according to the method described in Kosaka, T., Fukui, R., Matsui, M. et al. (2014) “RAGE, Receptor of Advanced Glycation Endoproducts, Negatively Regulates Chondrocytes Differentiation.” PLoS ONE 9(10): e108819. Briefly, the cells were reacted with a mouse anti-mast cell tryptase antibody (AB2378, Abcam, Tokyo, Japan) and then reacted with an FITC-conjugated anti-mouse IgG (Santa Cruz Biotechnology, Inc.) and 1 μg/mL DAPI (4′,6-diamino-2-phenylindole dihydrochloride). The fluorescent image was analyzed by EVOS® FL Cell Imaging System (Life Technologies Corp).
To confirm where the effect of fucoxanthin on granule formation in mast cells is specific rather than common to carotenoids, we compared granule formation between fucoxanthin-treated and astaxanthin-treated BMMCs by immunostaining of tryptase. The immunostaining assay was performed in the same manner as described in Example 6.

Cebpα-luc = test: Luciferase reporter assay in HEK293 cells; assay type: cell-based; settings: HEK293, 0.1, 1 or 10 μM for 48 hours, vs DMSO
From the text: (§1) The plasmids pGL3-Cebpα promoter-luc and pGL3-Mitf1 promoter-luc were provided by Dr. Hua Huang (University of Colorado school, Denver, USA). The plasmid NF-κB-luc was purchased from Agilent Technologies (Santa Clara, Calif.). The GATA-responsive reporter vector was provided by Dr. Ishijima (Takasaki University of Health and welfare, Gunma, Japan). Three GATA motifs from mouse α-1 globulin gene (5′-TGATAA-3′) were tandemly inserted into Sma I site of pRBGP3. HDC promoter was provided by Dr. Ootsu (Tohoku University school of Medicine, Sendai, Japan) and cloned into Kpn I-Hind III site of pGL4.10 (Hdc promoter-luc). The reporter assay was performed according to the method described in Kanatani, N. et al. Briefly, HEK293 cells were transfected with each of the luciferase constructs (0.2 μg) or pRL-CMV (Promega, Madison, Wis.) (0.001 μg). At 3 hours after transfection, the cells were treated with fucoxanthin (0.1 μM, 1 μM or 10 μM) or DMSO for 48 hours and reporter assay was performed using Dual-Luciferase® Reporter Assay System (Promega). Luciferase activity was measured using luminometer model TD20/20n (Turner BioSystems, Sunnyvale, Calif.) and normalized to Renilla luciferase activity expressed by CMV promoter.

Hdc-luc = test: Luciferase reporter assay in HEK293 cells; assay type: cell-based; settings: HEK293, 0.1, 1 or 10 μM for 48 hours, vs DMSO
From the text: as §1

Mitf1-luc = test: Luciferase reporter assay in HEK293 cells; assay type: cell-based; settings: HEK293, 0.1, 1 or 10 μM for 48 hours, vs DMSO
From the text: as §1

NF-κB-luc = test: Luciferase reporter assay in HEK293 cells; assay type: cell-based; settings: HEK293, 0.1, 1 or 10 μM for 48 hours, vs DMSO
From the text: as §1

filaggrin = test: Semi-quantitative immunoblot of skin proteins of NC/Nga mice; assay type: in vivo; settings: topical treatment for 5 weeks, vs Vaseline
Experimental: (§2) The immunoblot analysis was performed according to the method described in Kosaka, T. et al. (supra). Mice skin proteins were analyzed by SDS-10% polyacrylamide gel electrophoresis. The blots were incubated with a rabbit anti-filaggrin antibody (Santa Cruz Biotechnology, Inc., Santa Cruz, Calif.), a rabbit anti-actin antibody (Santa Cruz Biotechnology, Inc., Santa Cruz, Calif.) or a rabbit anti-loricrin antibody (Covance, Berkeley, Calif.), and then reacted with a horseradish peroxidase-conjugated anti-rabbit IgG or anti-donkey IgG (Santa Cruz Biotechnology, Inc.).

loricrin = test: as above; assay type: in vivo; settings: topical treatment for 5 weeks, vs Vaseline
Experimental: as §2

NC/Nga mice [4] = test: Transdermal water loss (TEWL) in the skin of NC/Nga mice; assay type: in vivo; settings: topical application plus PiCl, at 5 weeks, vs Vaseline
Experimental: Transdermal water loss (TEWL) in the skin of the mice treated with fucoxanthin was also measured and compared with that in the skin of the mice treated with tacrolimus.

Question: With `CC(=O)O[C@H]1CC(C)(C)C(=C=C/C(C)=C/C=C/C(C)=C/C=C/C=C(C)/C=C/C=C(\C)C(=O)C[C@@]23O[C@]2(C)C[C@@H](O)CC3(C)C)[C@](C)(O)C1` [fucoxanthin] as the compound, how does the “time spent for scratching behavior in 10 minutes” value (NC/Nga mice [1]; applied daily to back skin (0.1% (w/w) fucoxanthin in Vaseline), PiCl sensitization, at 5 weeks, vs Vaseline-applied mice) read?
Answer: attenuated; also recorded: remarkably shorter

Question: And the “speed of action on itch compared with tacrolimus” value (NC/Nga mice [1]; topical application, PiCl-sensitized NC/Nga mice, scratching time per 10 minutes)?
Answer: faster-acting than tacrolimus

Question: What about the “number of toluidine blue (TB)-positive cells in skin” value (NC/Nga mice [2]) of the same compound?
Answer: remarkably lower

Question: What about the “BMMC formation (number of BMMCs)” value (bone marrow cells) of the same compound?
Answer: suppressed BMMC formation in a dose-dependent manner

Question: What about the “granule formation (tryptase-positive cells / immunoreactivity against tryptase)” value [3] of the same compound?
Answer: remarkably reduced; also recorded: No tryptase-positive cell; also recorded: suppressed granule formation; also recorded: almost completely inhibited granule formation

Question: What about the Cebpα-luc reporter activity (Cebpα-luc) of the same compound?
Answer: not regulated

Question: And the Hdc-luc reporter activity (Hdc-luc)?
Answer: not regulated

Question: And the Mitf1-luc reporter activity (Mitf1-luc)?
Answer: not regulated

Question: And the “NF-κB activity (NFκB-luc)” value (NF-κB-luc)?
Answer: not affected

Question: And the “filaggrin expression level in skin (western blot)” value (filaggrin)?
Answer: elevated

Question: And the “loricrin expression level in skin (western blot)” value (loricrin)?
Answer: elevated

Question: What about the “transdermal water loss (TEWL)” value (NC/Nga mice [4]) of the same compound?
Answer: remarkably inhibited moisture evaporation
